According to patent US8598173B2, “1-[(6,7-substituted alkoxyquinoxalinyl)aminocarbonyl]-4-(hetero)arylpiperazine derivatives for treating tumors” (Korea Research Institute of Chemical Technology, priority 2004, dated 2013):
Read-outs that look alike come from different tables or passages of the source.

Experiments:
Type in all cases: cell-based, human
Details in all cases: SRB method, 96 hours incubation
MDA-MB-231 (breast) = test: Cell growth inhibition assay (SRB), MDA-MB-231
Description: (§1) OVCAR-3, MCF-7, PC3, HepG2, A549, HT-29 and MKN-45 were grown in RPMI1640 medium (Invitrogen, Carlsbad, Calif.) supplemented with 10% fetal bovine serum (‘FBS’), 1 mM sodium pyruvate, 10 mM HEPES and 100 U/ml penicillin and […] streptomycin (‘P/S’). MDA-MB-231, HCT116, UMRC2, Caki-1, PANC-1 and HEK293 cells were maintained in Dulbecco's modified Eagle's medium (‘DMEM’, Invitrogen) supplemented with 10% FBS, P/S, 10 mM HEPES and 2 mM L-glutamine. HUVEC was maintained in M199 supplemented with basic fibroblast growth factor (‘bFGF’) […] and FBS 20%. All cells were incubated at 37° C. under humidified 5% CO2.
(§2) The growth inhibition of the substituted quinoxalin-piperazine compounds against a variety of human tumor cells was evaluated. The relative importance of particular substituent groups on the compounds was also studied. The substituted piperazine derivative compounds, prepared as described above, were tested, along with DMSO as a control.
(§3) The growth inhibition assay of various compounds against human tumor cell lines was performed using the Sulforhodamine B (‘SRB’) method (Skehan et al., J. National Cancer Institute, 1990, 82, 1107-1112). […] Triplicate wells were used for each treatment. The cells were incubated with the various compounds for 96 hours at 37° C. in a humidified 5% CO2 atmosphere. After 96-hour incubation, cells were fixed with 10% trichloroacetic acid (‘TCA’), incubated for 1 hour at 4° C., and washed 3 times with tap water. Subsequently cells were stained with 0.4% sulforhodamine B in 1% acetic acid for 30 minutes, washed 4 times with 1% acetic acid, and air-dried again. After 5 minutes agitation in 10 mM Tris solution, the absorbance of each well was measured at 530 nm using Benchmark Plus Microplate reader (Bio-Rad Laboratories, Hercules, Calif.).
(§4) To translate the OD530 values into the number of live cells in each well, the OD530 values were compared to those on standard OD530-versus-cell number curves generated for each cell line. The percent survival was calculated using the formula: % Survival=live cell number[test]/live cell number[control]×100
(§5) The IC50 values were calculated by non-linear regression analysis.

UMRC2 (kidney) = test: Cell growth inhibition assay (SRB), UMRC2
Description: as §1, §2, §3, §4, §5

PANC-1 (pancreas) = test: Cell growth inhibition assay (SRB), PANC-1
Description: as §1, §2, §3, §4, §5

[1] = MDA-MB-231, read-out: Inhibition of cell growth (IC50, μM) by quinoxaline-piperazine compounds against human cancer cell lines: MDA-MB-231
[2] = UMRC2, read-out: Inhibition of cell growth (IC50, μM) by quinoxaline-piperazine compounds against human cancer cell lines: UMRC2
[3] = PANC-1, read-out: Inhibition of cell growth (IC50, μM) by quinoxaline-piperazine compounds against human cancer cell lines: PANC-1
[4] = Homo sapiens, MDA-MB-231, read-out: Inhibition of cell growth (IC50, μM) by quinoxaline-piperazine compounds against human cancer cell lines: MDA-MB-231
[5] = Homo sapiens, UMRC2, read-out: Inhibition of cell growth (IC50, μM) by quinoxaline-piperazine compounds against human cancer cell lines: UMRC2
[6] = Homo sapiens, PANC-1, read-out: Inhibition of cell growth (IC50, μM) by quinoxaline-piperazine compounds against human cancer cell lines: PANC-1
[7] = MDA-MB-231 (breast), read-out: IC50, MDA-MB-231
[8] = UMRC2 (kidney), read-out: IC50, UMRC2
[9] = PANC-1 (pancreas), read-out: IC50, PANC-1
[10] = Homo sapiens, MDA-MB-231 (breast), read-out: IC50, MDA-MB-231
[11] = Homo sapiens, UMRC2 (kidney), read-out: IC50, UMRC2
[12] = Homo sapiens, PANC-1 (pancreas), read-out: IC50, PANC-1

Structure (SMILES) | IC50 (MDA-MB-231 (breast); [4]) | IC50 (UMRC2 (kidney); [5]) | IC50 (PANC-1 (pancreas); [6]) | IC50 (MDA-MB-231 (breast); [10]) | IC50 (UMRC2 (kidney); [11]) | also measured
COc1nc2ccc(F)cc2nc1NC(=O)N1CCN(c2cccc(C(F)(F)F)c2)CC1 [Compound 11, 1-[(6-Fluoro-2-methoxyquinoxalin-3-yl)aminocarbonyl]-4-(3-trifluorotolyl)piperazine] |  |  |  |  |  | IC50 (MDA-MB-231 (breast); [1]): 0.25 µM; IC50 (UMRC2 (kidney); [2]): 0.39 µM; IC50 (PANC-1 (pancreas); [3]): 1.06 µM
COc1cccc(N2CCN(C(=O)Nc3nc4cc(Cl)ccc4nc3OC)CC2)c1 [Compound 24, 1-[(6-Chloro-2-methoxyquinoxalin-3-yl)aminocarbonyl]-4-(3-methoxyphenyl)piperazine] | 0.41 µM | 0.68 µM | 1.66 µM |  |  | 
COc1nc2ccc(Cl)cc2nc1NC(=O)N1CCN(c2cccc(C)c2)CC1 [Compound 29, 1-[(6-Chloro-2-methoxyquinoxalin-3-yl)aminocarbonyl]-4-(3-methylphenyl)piperazine] | 0.16 µM | 0.3 µM | 0.95 µM |  |  | 
COc1nc2ccc(Cl)cc2nc1NC(=O)N1CCN(c2cccc(C(F)(F)F)c2)CC1 [Compound 32, 1-[(6-Chloro-2-methoxyquinoxalin-3-yl)aminocarbonyl]-4-(3-trifluorotolyl)piperazine] |  |  |  |  |  | IC50 (MDA-MB-231 (breast); [1]): 1 µM; IC50 (UMRC2 (kidney); [2]): 1 µM; IC50 (PANC-1 (pancreas); [3]): > 1 µM
COc1nc2ccc(Cl)cc2nc1NC(=O)N1CCN(c2cccc(Cl)c2)CC1 [Compound 36, 1-[(6-Chloro-2-methoxyquinoxalin-3-yl)aminocarbonyl]-4-(3-chlorophenyl)piperazine] | 0.17 µM | 0.31 µM | 0.93 µM |  |  | 
COc1nc2ccc(C)cc2nc1NC(=O)N1CCN(c2cccc(C)c2)CC1 [Compound 50, 1-[(2-Methoxy-6-methylquinoxalin-3-yl)aminocarbonyl]-4-(3-methylphenyl)piperazine] | 0.22 µM | 0.4 µM | 1.04 µM |  |  | 
COc1nc2ccc(C)cc2nc1NC(=O)N1CCN(c2cccc(C(F)(F)F)c2)CC1 [Compound 53, 1-[(2-Methoxy-6-methylquinoxalin-3-yl)aminocarbonyl]-4-(3-trifluorotolyl)piperazine] |  |  |  |  |  | IC50 (MDA-MB-231 (breast); [1]): > 1 µM; IC50 (UMRC2 (kidney); [2]): > 1 µM; IC50 (PANC-1 (pancreas); [3]): > 1 µM
COc1nc2ccc(C)cc2nc1NC(=O)N1CCN(c2cccc(Cl)c2)CC1 [Compound 57, 1-[(2-Methoxy-6-methylquinoxalin-3-yl)aminocarbonyl]-4-(3-chlorophenyl)piperazine] | 0.14 µM | 0.24 µM | 0.64 µM |  |  | 
COc1cccc(N2CCN(C(=O)Nc3nc4cc(OC)ccc4nc3OC)CC2)c1 [Compound 66, 1-[(2,6-Dimethoxyquinoxalin-3-yl)aminocarbonyl]-4-(3-methoxyphenyl)piperazine] | > 1 µM | > 1 µM | > 1 µM |  |  | 
COc1ccc2nc(OC)c(NC(=O)N3CCN(c4cccc(C)c4)CC3)nc2c1 [Compound 71, 1-[(2,6-Dimethoxyquinoxalin-3-yl)aminocarbonyl]-4-(3-methylphenyl)piperazine] | 0.4 µM | 0.63 µM | 1.43 µM |  |  | 
COc1ccc2nc(OC)c(NC(=O)N3CCN(c4cccc(Cl)c4)CC3)nc2c1 [Compound 78, 1-[(2,6-Dimethoxyquinoxalin-3-yl)aminocarbonyl]-4-(3-chlorophenyl)piperazine] | > 1 µM | > 1 µM | > 1 µM |  |  | 
COc1cccc(N2CCN(C(=O)Nc3nc4ccc(F)cc4nc3OC)CC2)c1 [Compound 87, 1-[(6-Fluoro-3-methoxyquinoxalin-2-yl)aminocarbonyl]-4-(3-methoxyphenyl)piperazine] | > 1 µM | > 1 µM | > 1 µM |  |  | 
COc1nc2cc(F)ccc2nc1NC(=O)N1CCN(c2cccc(C)c2)CC1 [Compound 92, 1-[(6-Fluoro-3-methoxyquinoxalin-2-yl)aminocarbonyl]-4-(3-methylphenyl)piperazine] | 0.21 µM | 0.37 µM | 0.95 µM |  |  | 
COc1nc2cc(F)ccc2nc1NC(=O)N1CCN(c2cccc(C(F)(F)F)c2)CC1 [Compound 95, 1-[(6-Fluoro-3-methoxyquinoxalin-2-yl)aminocarbonyl]-4-(3-trifluorotoly)piperazine] |  |  |  |  |  | IC50 (MDA-MB-231 (breast); [7]): > 1 µM; IC50 (UMRC2 (kidney); [8]): > 1 µM; IC50 (PANC-1 (pancreas); [9]): > 1 µM
COc1cccc(N2CCN(C(=O)Nc3nc4ccc(Cl)cc4nc3OC)CC2)c1 [Compound 108, 1-[(6-Chloro-3-methoxyquinoxalin-2-yl)aminocarbonyl]-4-(3-methoxyphenyl)piperazine] |  |  |  | > 1 µM | > 1 µM | IC50 (PANC-1 (pancreas); [12]): > 1 µM
COc1nc2cc(Cl)ccc2nc1NC(=O)N1CCN(c2cccc(C)c2)CC1 [Compound 113, 1-[(6-Chloro-3-methoxyquinoxalin-2-yl)aminocarbonyl]-4-(3-methylphenyl)piperazine] |  |  |  | 0.3 µM | 0.4 µM | IC50 (PANC-1 (pancreas); [12]): 0.61 µM
COc1nc2cc(Cl)ccc2nc1NC(=O)N1CCN(c2cccc(C(F)(F)F)c2)CC1 [Compound 116, 1-[(6-Chloro-3-methoxyquinoxalin-2-yl)aminocarbonyl]-4-(3-trifluorotolyl)piperazine] |  |  |  |  |  | IC50 (MDA-MB-231 (breast); [7]): > 1 µM; IC50 (UMRC2 (kidney); [8]): > 1 µM; IC50 (PANC-1 (pancreas); [9]): > 1 µM
COc1cccc(N2CCN(C(=O)Nc3nc4ccc(C)cc4nc3OC)CC2)c1 [Compound 129, 1-[(3-Methoxy-6-methylquinoxalin-2-yl)aminocarbonyl]-4-(3-methoxyphenyl)piperazine] |  |  |  | > 1 µM | > 1 µM | IC50 (PANC-1 (pancreas); [12]): > 1 µM
COc1nc2cc(C)ccc2nc1NC(=O)N1CCN(c2cccc(C)c2)CC1 [Compound 134, 1-[(3-Methoxy-6-methylquinoxalin-2-yl)aminocarbonyl]-4-(3-methylphenyl)piperazine] |  |  |  | 0.26 µM | 0.26 µM | 
COc1nc2cc(C)ccc2nc1NC(=O)N1CCN(c2cccc(Cl)c2)CC1 [Compound 141, 1-[(3-Methoxy-6-methylquinoxalin-2-yl)aminocarbonyl]-4-(3-chlorophenyl)piperazine] |  |  |  | 0.25 µM | 0.25 µM | 
COc1cccc(N2CCN(C(=O)Nc3nc4ccc(OC)cc4nc3OC)CC2)c1 [Compound 150, 1-[(3,6-Dimethoxyquinoxalin-2-yl)aminocarbonyl]-4-(3-methoxyphenyl)piperazine] |  |  |  | ≥ 1 µM | > 1 µM | IC50 (PANC-1 (pancreas); [12]): > 1 µM
COc1ccc2nc(NC(=O)N3CCN(c4cccc(C)c4)CC3)c(OC)nc2c1 [Compound 155, 1-[(3,6-Dimethoxyquinoxalin-2-yl)aminocarbonyl]-4-(3-methylphenyl)piperazine] |  |  |  | 0.23 µM | 0.39 µM | IC50 (PANC-1 (pancreas); [12]): 0.96 µM
COc1ccc2nc(NC(=O)N3CCN(c4cccc(C(F)(F)F)c4)CC3)c(OC)nc2c1 [Compound 158, 1-[(3,6-Dimethoxyquinoxalin-2-yl)aminocarbonyl]-4-(3-trifluorotoly)piperazine] |  |  |  |  |  | IC50 (MDA-MB-231 (breast); [7]): > 1 µM; IC50 (UMRC2 (kidney); [8]): > 1 µM; IC50 (PANC-1 (pancreas); [9]): > 1 µM
COc1ccc2nc(NC(=O)N3CCN(c4cccc(Cl)c4)CC3)c(OC)nc2c1 [Compound 162, 1-[(3,6-Dimethoxyquinoxalin-2-yl)aminocarbonyl]-4-(3-chlorophenyl)piperazine] |  |  |  | 0.23 µM | 0.29 µM | IC50 (PANC-1 (pancreas); [12]): 0.46 µM
COc1ccc2nc(NC(=O)N3CCN(c4ccccn4)CC3)c(OC)nc2c1 [Compound 167, 1-[(3,6-Dimethoxyquinoxalin-2-yl)aminocarbonyl]-4-(2-pyridyl)piperazine] |  |  |  | > 1 µM | > 1 µM | IC50 (PANC-1 (pancreas); [12]): > 1 µM
